# Measurements as given in patent US4794113A, “Imidazolyl phenoxy compounds and method of use” (Yamanouchi Pharmaceutical Co., Ltd., priority 1983, dated 1988).
# How the values were obtained:
# [1] = system: platelet aggregation induced by arachidonic acid; assay: Platelet Aggregation Prevention Activity (arachidonic acid induced, platelet rich plasma); type: cell-based, Nippon white rabbit; conditions: compound 100 μM; arachidonic acid final concentration 0.2 mM; rabbit PRP
# Experimental: Platelet rich plasma (PRP) and platelet poor plasma (PPP) were prepared from venous blood of Nippon white rabbit. The platelet aggregation activity was measured in accordance with the method described in Born, G. V. R.; Nature, 194, 927 (1962) and the activity of preventing platelet agglutination of the compound against platelet aggregation induced by arachidonic acid (final concentration, 0.2 mM) was determined with an Aggrigometer (made by Payton Co.).
# [2] = system: Hyperlipedemic rat; assay: Lipid Reducing Activity (cholesterol/bile acid fed hyperlipidemic rats, serum lipids); type: in vivo, male Sprague-Dawley rats; conditions: 100 mg/kg/day p.o., 4 days; for HDL-C/LDL-C (cont. = 1): relative to control; for HDL-Chol** (cont. = 1): relative to control = 1
# Experimental: Feed containing 1.5% cholesterol and 0.5% bile acid was given to male Sprague-Dawley rats aging 4 weeks old after birth for 7 days. A suspension of the compound of the present invention in a 0.5% aqueous methyl cellulose solution was administered daily via oral catheter for 4 days. After fastening overnight, blood was collected under ether anesthesia to determine the quantities of the total HDL and cholesterol in serum. The measurements of cholesterol and HDL were performed in accordance with the method described in Schettler, G. & Hussel; Arbetsmed. Sozialmed. Praventived., 10, 25 (1975) and the method described in T. T. Ishikawa et al.; Lipids, 11, 628 (1976), respectively.
structure (smiles),measurement,setting,value
"CCOC(=O)C(C)(C)CCCCCOc1ccc(-c2csc(-c3cccnc3)n2)cc1 [Example 2, ethyl 2,2-dimethyl-7-[p-[2-(3-pyridyl)-4-thiazolyl]phenoxy]heptanoate]",Platelet Aggregation inhibition (%) A.A.,[1],16%
same,"Reduction Rate of T* and Chol** (*triglyceride, **cholesterol)",[2],59%
same,HDL-C/LDL-C (cont. = 1),[2],22
same,HDL-Chol** (cont. = 1),[2],7.62
"CCOC(=O)C(C)(C)CCCOc1ccc(-c2csc(C)n2)cc1 [Example 5, ethyl 5-[p-(2-methyl-4-thiazolyl)phenoxy]-2,2-dimethylpentanoate]",Platelet Aggregation inhibition (%) A.A.,[1],50%
same,"Reduction Rate of T* and Chol** (*triglyceride, **cholesterol)",[2],69%
same,HDL-C/LDL-C (cont. = 1),[2],8.00
same,HDL-Chol** (cont. = 1),[2],1.54
"CCOC(=O)C(C)(C)CCCCOc1ccc(OCCCCCn2ccnc2)cc1 [Example 30, ethyl 6-[p-[5-(1-imidazolyl)pentyloxy]phenoxy]-2,2-dimethylhexanoate]",Platelet Aggregation inhibition (%) A.A.,[1],57%
same,"Reduction Rate of T* and Chol** (*triglyceride, **cholesterol)",[2],48%
same,HDL-C/LDL-C (cont. = 1),[2],5.00
same,HDL-Chol** (cont. = 1),[2],1.78
"CCOC(=O)C(C)(C)CCCCOc1ccc(NC(=O)CCCn2ccnc2)cc1 [Example 35, Ethyl-6-[p-[4-(1-imidazolyl)-butyramido]phenoxy]-2,2-dimethylhexanoate]",Platelet Aggregation inhibition (%) A.A.,[1],7%
same,"Reduction Rate of T* and Chol** (*triglyceride, **cholesterol)",[2],52%
same,HDL-C/LDL-C (cont. = 1),[2],5.4
same,HDL-Chol** (cont. = 1),[2],2.49
CCOC(=O)C(C)(C)CCCCCOc1ccc(NC(=O)CCCCn2ccnc2)cc1 [Example 39],Platelet Aggregation inhibition (%) A.A.,[1],100%
same,"Reduction Rate of T* and Chol** (*triglyceride, **cholesterol)",[2],23%
same,HDL-C/LDL-C (cont. = 1),[2],4.1
same,HDL-Chol** (cont. = 1),[2],3.11
